The target in one test is COX-1 (Homo sapiens, UniProt P23219). Kind of test: Microsomal assay, inhibition of COX-1. Type of test: biochemical. On the procedure: (§1) Inhibitory activity against microsomal h-COX2 was assessed against a microsomal preparation from baculovirus infected SF9 cells. An aliquot of microsomal preparation was thawed slowly on ice and a 1/40,000 dilution prepared from it into the assay buffer (sterile water, degassed with argon containing 100 mM HEPES (pH 7.4), 10 mM EDTA (pH7.4), 1 mM phenol, 1 mM reduced glutathione, 20 mg/ml gelatin and 0.001 mM Hematin). Once diluted the enzyme solution was then sonicated for 5 seconds (Branson sonicator, setting 4, 1 cm tip) to ensure a homogeneous suspension. 155 μl enzyme solution was then added to each well of a 96-well microtitre plate containing either 5 μl test compound (40× required test concentration) or 5 μl DMSO for controls. Plates were then mixed and incubated at room temperature for 1 hour. Following the incubation period, 40 μl of 0.5 μM arachidonic acid was added to each well to give a final concentration of 0.1 μM. Plates were then mixed and incubated for exactly 10 minutes (room temperature) prior to addition of 25 μl 1M HCl (hydrochloric acid) to each well to stop the reaction. 25 μl of 1M NaOH (sodium hydroxide) was then added to each well to neutralise the solution prior to determination of PGE2 levels by enzyme immunoassay (EIA).
Chain of COX-1 (P23219 24-599): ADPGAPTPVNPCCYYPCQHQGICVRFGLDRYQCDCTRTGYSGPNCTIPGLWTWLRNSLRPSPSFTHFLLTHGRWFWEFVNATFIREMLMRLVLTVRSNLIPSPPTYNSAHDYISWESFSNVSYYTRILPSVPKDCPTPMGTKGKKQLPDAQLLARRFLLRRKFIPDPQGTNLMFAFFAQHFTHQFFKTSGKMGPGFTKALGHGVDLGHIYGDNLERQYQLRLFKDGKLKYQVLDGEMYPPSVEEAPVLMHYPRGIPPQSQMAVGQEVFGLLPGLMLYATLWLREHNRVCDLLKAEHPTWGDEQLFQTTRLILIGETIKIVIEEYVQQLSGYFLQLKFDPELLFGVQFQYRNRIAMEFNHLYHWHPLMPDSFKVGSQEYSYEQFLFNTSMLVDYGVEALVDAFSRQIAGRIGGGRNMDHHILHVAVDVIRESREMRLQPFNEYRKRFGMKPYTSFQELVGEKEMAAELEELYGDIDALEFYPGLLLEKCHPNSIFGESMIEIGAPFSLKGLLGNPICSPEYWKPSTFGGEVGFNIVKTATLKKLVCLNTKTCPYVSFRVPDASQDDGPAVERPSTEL
(§2) The following IC50 values for inhibition of COX-2 and COX-1 were obtained from the microsomal assay for compounds of the invention: […]

In another test the target is T1, microsomal h-COX2 (Homo sapiens, UniProt P35354).
T1 construct: made in house; host or cells: baculovirus infected SF9 cells (microsomal preparation)
T1 sequence (P35354 18-604): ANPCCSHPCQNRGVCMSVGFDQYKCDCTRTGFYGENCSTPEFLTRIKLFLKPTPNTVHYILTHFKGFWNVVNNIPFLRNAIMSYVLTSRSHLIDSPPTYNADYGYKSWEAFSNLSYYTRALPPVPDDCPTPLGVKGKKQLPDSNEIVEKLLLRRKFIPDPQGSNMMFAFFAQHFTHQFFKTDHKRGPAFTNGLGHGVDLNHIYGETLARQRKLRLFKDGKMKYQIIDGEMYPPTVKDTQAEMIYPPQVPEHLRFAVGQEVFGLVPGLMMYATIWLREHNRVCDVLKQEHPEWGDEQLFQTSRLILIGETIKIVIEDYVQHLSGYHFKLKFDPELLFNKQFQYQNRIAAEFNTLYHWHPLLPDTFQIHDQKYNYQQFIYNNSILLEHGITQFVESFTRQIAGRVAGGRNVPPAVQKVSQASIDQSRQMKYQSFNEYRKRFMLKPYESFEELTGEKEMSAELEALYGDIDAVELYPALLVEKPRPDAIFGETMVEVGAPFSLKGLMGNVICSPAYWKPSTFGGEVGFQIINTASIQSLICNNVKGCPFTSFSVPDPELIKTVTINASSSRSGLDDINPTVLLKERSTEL
Kind of test: Microsomal assay, inhibition of COX-2. Type of test: biochemical. To be noted: microsomal preparation from baculovirus infected SF9 cells; PGE2 by EIA. Here is the method:
as §1, §2

pIC50: −log10 of the molar value.

For orientation: pIC50 means the negative decadic logarithm of the IC50, by convention in mol/L. Low values mean a large IC50, high ones a small IC50.

Take `CCCCNc1nc(-c2ccc(S(C)(=O)=O)cc2)cc(C(F)F)n1` [Example 2, N-butyl-4-(difluoromethyl)-6-[4-(methylsulfonyl)phenyl]pyrimidin-2-amine]: the results for the pIC50 at COX-1 and against microsomal h-COX2 were under 4.03 and 7.77, respectively.
In the case of `CCCCNc1nc(CF)cc(-c2ccc(S(C)(=O)=O)cc2)n1` [Example 1, N-Butyl-4-(fluoromethyl)-6-[4-(methylsulfonyl)phenyl]pyrimidin-2-amine], the pIC50 on COX-1 was under 5.00; at microsomal h-COX2, 6.12.

These data come from patent US7074802B2, “Pyrimidine derivatives as selective inhibitors of cox-2” (Glaxo Group Limited, priority 2001, dated 2006).
